Like-named read-outs stand apart in the source and are kept apart here.
Tested on: 280 human cancer cell lines
Experiment: OncoPanel cell proliferation assay (10-day)
Type: cell-based
Details: Homo sapiens; for GI50: read-out: Cell Count GI50; for IC50: read-out: Cell Count IC50; for EC50: read-out: Cell Count EC50
[1] = C-4-II, C-4 II, Female GU - Cervix
[2] = C-33-A, C-33A, Female GU - Cervix
[3] = CAL-62, CAL-62, Endocrine - Thyroid
[4] = CCF-STTG1, CCF-STTG1, CNS - Glioma
[5] = CGTH-W-1, CGTH-W-1, Endocrine - Thyroid
[6] = CHP-212, CHP-212, CNS - Neuroblastoma
[7] = COLO-320-HSR, Colo 320 HSR, Colon
[8] = COLO-829, COLO 829, Skin (Melanoma)
[9] = COR-L105, COR-L105, Lung - NSCLC
[10] = Ca-Ski, Ca Ski, Female GU - Ovary

CC(C)=CCC[C@H](C)[C@@H]1CC[C@@H](C)c2c1cc(C)c(O)c2O [Compound 4, 7,8-dihydroxyserrulat-14-ene]
GI50 (BT-474, BT474, Breast): 25 µM
IC50 (BT-474, BT474, Breast): 25.7 µM
EC50 (BT-549, BT-549, Breast): 15.3 µM
GI50 (BT-549, BT-549, Breast): 15.1 µM
IC50 (BT-549, BT-549, Breast): 15.3 µM
EC50 (BV-173, BV-173, Leukemia): 3.56 µM
GI50 (BV-173, BV-173, Leukemia): 3.55 µM
IC50 (BV-173, BV-173, Leukemia): 3.56 µM
EC50 (BXPC-3, BxPC-3, Pancreas): 13.4 µM
GI50 (BXPC-3, BxPC-3, Pancreas): 13.4 µM
IC50 (BXPC-3, BxPC-3, Pancreas): 13.4 µM
EC50 (BeWo, Placenta): 15.6 µM
GI50 (BeWo, Placenta): 15.5 µM
IC50 (BeWo, Placenta): 15.6 µM
EC50 (C32, Skin (Melanoma)): 7.84 µM
GI50 (C32, Skin (Melanoma)): 6.37 µM
IC50 (C32, Skin (Melanoma)): 7.84 µM
EC50 [1]: 12.6 µM
GI50 [1]: 12.5 µM
IC50 [1]: 12.6 µM
EC50 [2]: 9.57 µM
GI50 [2]: 9.42 µM
IC50 [2]: 9.57 µM
EC50 (CA46, CA46, Lymphoma): 4.06 µM
GI50 (CA46, CA46, Lymphoma): 4.06 µM
IC50 (CA46, CA46, Lymphoma): 4.06 µM
EC50 (CAKI-1, Caki-1, Kidney): 14.4 µM
GI50 (CAKI-1, Caki-1, Kidney): 14.1 µM
IC50 (CAKI-1, Caki-1, Kidney): 14.4 µM
EC50 (CAKI-2, Caki-2, Kidney): 13.1 µM
GI50 (CAKI-2, Caki-2, Kidney): 13.5 µM
IC50 (CAKI-2, Caki-2, Kidney): 13.6 µM
EC50 (CAL-27, Cal 27, Head and Neck): 12.3 µM
GI50 (CAL-27, Cal 27, Head and Neck): 12.2 µM
IC50 (CAL-27, Cal 27, Head and Neck): 12.3 µM
EC50 [3]: 5.36 µM
GI50 [3]: 5.36 µM
IC50 [3]: 5.36 µM
EC50 (CAMA-1, CAMA-1, Breast): > 30 µM
GI50 (CAMA-1, CAMA-1, Breast): > 30 µM
IC50 (CAMA-1, CAMA-1, Breast): > 30 µM
EC50 (CAPAN-1, Capan-1, Pancreas): > 30 µM
GI50 (CAPAN-1, Capan-1, Pancreas): > 30 µM
IC50 (CAPAN-1, Capan-1, Pancreas): > 30 µM
EC50 [4]: 19.7 µM
GI50 [4]: 16 µM
IC50 [4]: 19.7 µM
EC50 (CCRF-CEM, CCRFCEM, Leukemia): 4.92 µM
GI50 (CCRF-CEM, CCRFCEM, Leukemia): 4.91 µM
IC50 (CCRF-CEM, CCRFCEM, Leukemia): 4.93 µM
EC50 (CEM/C1, CEM-C1, Leukemia): 1.47 µM
GI50 (CEM/C1, CEM-C1, Leukemia): 1.47 µM
IC50 (CEM/C1, CEM-C1, Leukemia): 1.47 µM
EC50 (CFPAC-1, CFPAC-1, Pancreas): 25.2 µM
GI50 (CFPAC-1, CFPAC-1, Pancreas): 25.1 µM
IC50 (CFPAC-1, CFPAC-1, Pancreas): 25.2 µM
EC50 [5]: 3.45 µM
GI50 [5]: 3.47 µM
IC50 [5]: 3.48 µM
EC50 (CHL-1, CHL-1, Skin (Melanoma)): 11.9 µM
GI50 (CHL-1, CHL-1, Skin (Melanoma)): 11.8 µM
IC50 (CHL-1, CHL-1, Skin (Melanoma)): 11.9 µM
EC50 [6]: 9.77 µM
GI50 [6]: 9.74 µM
IC50 [6]: 9.78 µM
EC50 (CML-T1, CML-T1, Leukemia): 3.93 µM
GI50 (CML-T1, CML-T1, Leukemia): 3.93 µM
IC50 (CML-T1, CML-T1, Leukemia): 3.93 µM
EC50 (COLO 201, Colo 201, Colon): 4.07 µM
GI50 (COLO 201, Colo 201, Colon): 4.04 µM
IC50 (COLO 201, Colo 201, Colon): 4.07 µM
EC50 (COLO 205, Colo 205, Colon): 11.9 µM
GI50 (COLO 205, Colo 205, Colon): 11.9 µM
IC50 (COLO 205, Colo 205, Colon): 11.9 µM
EC50 (COLO 320DM, Colon): 7.91 µM
GI50 (COLO 320DM, Colon): 7.87 µM
IC50 (COLO 320DM, Colon): 7.91 µM
EC50 [7]: 5.15 µM
GI50 [7]: 5.15 µM
IC50 [7]: 5.16 µM
EC50 [8]: 3.71 µM
GI50 [8]: 3.29 µM
IC50 [8]: 3.71 µM
EC50 (COR-L23, COR-L23, Lung - NSCLC): 13.3 µM
GI50 (COR-L23, COR-L23, Lung - NSCLC): 13.2 µM
IC50 (COR-L23, COR-L23, Lung - NSCLC): 13.3 µM
EC50 [9]: 8.66 µM
GI50 [9]: 8.47 µM
IC50 [9]: 8.66 µM
EC50 (CRO-AP2, CRO-AP2, Lymphoma): 9.94 µM
GI50 (CRO-AP2, CRO-AP2, Lymphoma): 9.88 µM
IC50 (CRO-AP2, CRO-AP2, Lymphoma): 9.94 µM
EC50 [10]: 17.6 µM
GI50 [10]: 17.6 µM
IC50 [10]: 17.6 µM
EC50 (Calu-1, Calu1, Lung - NSCLC): 8.88 µM
GI50 (Calu-1, Calu1, Lung - NSCLC): 8.77 µM
IC50 (Calu-1, Calu1, Lung - NSCLC): 8.88 µM
EC50 (Calu-6, Calu6, Lung - NSCLC): 25 µM
GI50 (Calu-6, Calu6, Lung - NSCLC): 24.5 µM
IC50 (Calu-6, Calu6, Lung - NSCLC): 25 µM

Reference: patent US11331299B2, “Medicinal use of serrulatane diterpenes” (The University of Sydney, priority 2016, dated 2022)
